Reference: US7321046B2, “Analogs of dictyostatin, intermediates therefor and methods of synthesis thereof” (University of Pittsburgh, priority 2002, dated 2008)

Conditions: from C=C/C=C\[C@H](C)[C@H](O)[C@@H](C)[C@@H](CC[C@H](C)C[C@H](C)[C@@H](O[Si](C)(C)C(C)(C)C)[C@@H](C)/C=C\[C@H](C[C@H](O[Si](C)(C)C(C)(C)C)[C@H](C)/C=C/C=C\C(=O)O)O[Si](C)(C)C(C)(C)C)O[Si](C)(C)C(C)(C)C; ester bond; 2,4,6-trichlorobenzoyl chloride / Et3N / DMAP (Yamaguchi); toluene; 1.71 mM; 25.0 °C; 12.0 h; 2 steps

Work on `C=C/C=C\[C@H](C)[C@@H]1OC(=O)/C=C\C=C\[C@@H](C)[C@@H](O[Si](C)(C)C(C)(C)C)C[C@H](O[Si](C)(C)C(C)(C)C)/C=C\[C@H](C)[C@H](O[Si](C)(C)C(C)(C)C)[C@@H](C)C[C@@H](C)CC[C@@H](O[Si](C)(C)C(C)(C)C)[C@@H]1C` yielded a ring closure, yield of all isomers of 78%.
